Laboratory results reported in US7932270B2 (Cytokinetics, Inc., priority 2006, dated 2011).

Each compound was assayed against T1, chicken gizzard smooth muscle myosin subfragment-1 chemically crosslinked to cardiac or skeletal actin (Gallus gallus, UniProt P10587) (assay: Smooth muscle myosin ATPase dose response assay (pyruvate kinase/horseradish peroxidase/pyruvate oxidase-coupled, amplex red fluorescence)). Settings: read-out: IC50 Arithmetic Mean.
T1 construct: chicken gizzard smooth muscle myosin subfragment-1; from tissue; host or cells: chicken gizzard
Type: biochemical
Outline: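 Lead-optimization format: ATPase coupled via pyruvate kinase, pyruvate oxidase and peroxidase, pH 7.00 at 22° C, with 0.15 mM ATP, 100 mM KCl, 2 mM MgCl2, 2 mM phosphate and 0.1 mM amplex red (final). Crosslinked S1 titrated empirically for set hydrolysis rate; fluorescence (ex 480/em 615 nm) dose curves fit 4-parameter for IC50.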

T1 sequence (P02607 2-151): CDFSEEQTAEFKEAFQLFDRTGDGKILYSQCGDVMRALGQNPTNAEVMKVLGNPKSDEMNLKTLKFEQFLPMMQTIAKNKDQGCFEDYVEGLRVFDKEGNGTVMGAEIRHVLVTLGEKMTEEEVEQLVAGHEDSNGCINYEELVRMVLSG
T1 sequence (P10587 84-789): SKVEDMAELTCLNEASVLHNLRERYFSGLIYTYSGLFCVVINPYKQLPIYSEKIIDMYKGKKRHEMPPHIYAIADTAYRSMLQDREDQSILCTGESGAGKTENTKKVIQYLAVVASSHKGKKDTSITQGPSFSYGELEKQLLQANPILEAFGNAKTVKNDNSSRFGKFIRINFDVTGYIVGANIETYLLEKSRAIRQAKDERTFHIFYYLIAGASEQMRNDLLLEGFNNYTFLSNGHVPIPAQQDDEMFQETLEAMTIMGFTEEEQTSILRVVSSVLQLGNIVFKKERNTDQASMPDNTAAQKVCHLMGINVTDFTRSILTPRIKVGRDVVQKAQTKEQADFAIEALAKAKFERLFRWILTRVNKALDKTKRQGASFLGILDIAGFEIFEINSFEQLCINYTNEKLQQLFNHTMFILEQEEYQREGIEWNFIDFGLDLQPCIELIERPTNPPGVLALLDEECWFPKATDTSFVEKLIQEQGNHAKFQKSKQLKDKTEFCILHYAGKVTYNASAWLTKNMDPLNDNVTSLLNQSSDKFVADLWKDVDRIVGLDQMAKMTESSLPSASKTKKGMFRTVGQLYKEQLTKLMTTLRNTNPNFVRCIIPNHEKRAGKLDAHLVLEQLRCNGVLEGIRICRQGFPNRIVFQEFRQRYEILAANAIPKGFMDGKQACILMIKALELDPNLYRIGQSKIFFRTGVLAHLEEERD

Compound | IC50
O=C(NCc1cccnc1)c1ccc(-c2ccc(F)c(F)c2)nc1NCCc1cccc(F)c1 [(6-(3,4-difluorophenyl)-2-{[2-(3-fluorophenyl)ethyl]amino}(3-pyridyl))-N-(3-pyridylmethyl)carboxamide] | 534 nM
N#Cc1ccccc1-c1ccc(C(=O)NCc2cccnc2)c(NCCc2cccc(F)c2F)n1 [(2-{[2-(2,3-difluorophenyl)ethyl]amino}-6-(2-cyanophenyl)(3-pyridyl))-N-(3-pyridylmethyl)carboxamide] | 22 nM
CN(C)C(=NCc1cccc(CNC(=O)c2ccc(-c3ccccc3C#N)nc2NCCc2cccc(F)c2)n1)N(C)C [N-({6-[3,3-bis(dimethylamino)-2-azaprop-2-enyl](2-pyridyl)}methyl)(6-(2-cyanophenyl)-2-{[2-(3-fluorophenyl)ethyl]amino}(3-pyridyl))carboxamide] | 285 nM
O=C(NCc1cccnc1)c1ccc(-c2ccc(F)cc2)nc1NCCc1cc(F)cc(F)c1 [(2-{[2-(3,5-difluorophenyl)ethyl]amino}-6-(4-fluorophenyl)(3-pyridyl))-N-(3-pyridylmethyl)carboxamide] | 138 nM
CC(=O)Nc1ccc(-c2ccc(C(=O)NCc3cccnc3)c(NCCc3ccccn3)n2)cc1 [N-(4-{6-[(2-(2-pyridyl)ethyl)amino]-5-[N-(3-pyridylmethyl)carbamoyl]-2-pyridyl}phenyl)acetamide] | 1220 nM
CC(C)(C)OC(=O)NCc1ncccc1CNC(=O)c1cc(C#N)c(-c2cn[nH]c2)nc1NCCc1cccc(F)c1 [N-[(2-{[(tert-butoxy)carbonylamino]methyl}(3-pyridyl))methyl](5-cyano-2-{[2-(3-fluorophenyl)ethyl]amino}-6-pyrazol-4-yl(3-pyridyl))carboxamide] | 1000 nM
Cn1cc(-c2nc(NCCc3cccc(F)c3)c(C(=O)NCc3cccnc3CNC(=O)OC(C)(C)C)cc2Cl)cn1 [N-[(2-{[(tert-butoxy)carbonylamino]methyl}(3-pyridyl))methyl](5-chloro-2-{[2-(3-fluorophenyl)ethyl]amino}-6-(1-methylpyrazol-4-yl)(3-pyridyl))carboxamide] | 414 nM
Cc1csc(-c2ccc(C(=O)NCc3cccnc3)c(NCCc3cccc(F)c3)n2)c1 [(2-{[2-(3-fluorophenyl)ethyl]amino}-6-(4-methyl(2-thienyl))(3-pyridyl))-N-(3-pyridylmethyl)carboxamide] | 148 nM
Cn1cc(-c2nc(NCCc3cccc(F)c3)c(C(=O)NC[C@H]3CCN3C(=O)COC(=O)CN)cc2F)cn1 [2-((2R)-2-{[(5-fluoro-2-{[2-(3-fluorophenyl)ethyl]amino}-6-(1-methylpyrazol-4-yl)(3-pyridyl))carbonylamino]methyl}azetidinyl)-2-oxoethyl 2-aminoacetate] | 45 nM
O=C(NCc1cc[nH]n1)c1cc(F)c(-c2cn[nH]c2)nc1NCCc1cccc(F)c1 [(5-fluoro-2-{[2-(3-fluorophenyl)ethyl]amino}-6-pyrazol-4-yl(3-pyridyl))-N-(pyrazol-3-ylmethyl)carboxamide] | 24 nM
O=C(NCc1cccnc1)c1ccc(-c2ccccc2)nc1NCCc1ccc(Cl)cc1 [(2-{[2-(4-chlorophenyl)ethyl]amino}-6-phenyl(3-pyridyl))-N-(3-pyridylmethyl)carboxamide] | 6680 nM
CC(=O)N1CCC(CNC(=O)c2ccc(-c3ccccc3)nc2NCCc2ccccn2)CC1 [N-[(1-acetyl(4-piperidyl))methyl]{6-phenyl-2-[(2-(2-pyridyl)ethyl)amino](3-pyridyl)}carboxamide] | 96700 nM
N#Cc1ccccc1-c1ccc(C(=O)NCc2ccn(CCN)n2)c(NCCc2cccc(F)c2)n1 [N-{[1-(2-aminoethyl)pyrazol-3-yl]methyl}(6-(2-cyanophenyl)-2-{[2-(3-fluorophenyl)ethyl]amino}(3-pyridyl))carboxamide] | 296 nM
N#Cc1ccccc1-c1ccc(C(=O)NCCN2C(=O)CC[C@@H]2CN)c(NCCc2cccc(F)c2)n1 [N-{2-[(5R)-5-(aminomethyl)-2-oxopyrrolidinyl]ethyl}(6-(2-cyanophenyl)-2-{[2-(3-fluorophenyl)ethyl]amino}(3-pyridyl))carboxamide] | 19500 nM
O=C(NCc1cccnc1)c1ccc(-c2cn[nH]c2)nc1NCCc1cccc(F)c1 [(2-{[2-(3-fluorophenyl)ethyl]amino}-6-pyrazol-4-yl(3-pyridyl))-N-(3-pyridylmethyl)carboxamide] | 44 nM
N#Cc1ccccc1-c1ccc(C(=O)NCc2cccc(NCCCN)n2)c(NCCc2cccc(F)c2)n1 [N-({6-[(3-aminopropyl)amino](2-pyridyl)}methyl)(6-(2-cyanophenyl)-2-{[2-(3-fluorophenyl)ethyl]amino}(3-pyridyl))carboxamide] | 5 nM
N#Cc1ccccc1-c1ccc(C(=O)NCc2cccnc2)c(NCCc2ccccc2Cl)n1 [(2-{[2-(2-chlorophenyl)ethyl]amino}-6-(2-cyanophenyl)(3-pyridyl))-N-(3-pyridylmethyl)carboxamide] | 28 nM
OC(CNCc1ccccn1)c1ccc(-c2ccccc2)nc1NCCc1cccc(F)c1 (centres unmarked) [1-(2-{[2-(3-fluorophenyl)ethyl]amino}-6-phenyl(3-pyridyl))-2-[(2-pyridylmethyl)amino]ethan-1-ol] | 19400 nM
O=Cc1ccc(-c2ccc(C(=O)NCc3cccnc3)c(NCCc3cccc(F)c3)n2)s1 [(2-{[2-(3-fluorophenyl)ethyl]amino}-6-(5-formyl(2-thienyl))(3-pyridyl))-N-(3-pyridylmethyl)carboxamide] | 52 nM
N#Cc1ccccc1-c1ccc(C(=O)NCc2cccc(C(F)(F)F)n2)c(NCCc2cccc(F)c2)n1 [(6-(2-cyanophenyl)-2-{[2-(3-fluorophenyl)ethyl]amino}(3-pyridyl))-N-{[6-(trifluoromethyl)(2-pyridyl)]methyl}carboxamide] | 604 nM
N#Cc1ccc(F)cc1-c1ccc(C(=O)NCc2cccnc2)c(NCCc2cccc(F)c2)n1 [(6-(2-cyano-5-fluorophenyl)-2-{[2-(3-fluorophenyl)ethyl]amino}(3-pyridyl))-N-(3-pyridylmethyl)carboxamide] | 53 nM

More lines, now with the values ahead:

IC50 | Compound
310 nM | Cn1cc(-c2nc(NCCc3cccc(F)c3)c(C(=O)NC[C@H]3CCC(=O)N3CCCN)cc2C#N)cn1 [N-{[(2R)-1-(3-aminopropyl)-5-oxopyrrolidin-2-yl]methyl}(5-cyano-2-{[2-(3-fluorophenyl)ethyl]amino}-6-(1-methylpyrazol-4-yl)(3-pyridyl))carboxamide]
624 nM | N#Cc1ccccc1-c1ccc(C(=O)NCc2ncccc2CN)c(NCCc2cccc(F)c2)n1 [N-{[3-(aminomethyl)(2-pyridyl)]methyl}(6-(2-cyanophenyl)-2-{[2-(3-fluorophenyl)ethyl]amino}(3-pyridyl))carboxamide]
37300 nM | O=C(NCc1cccnc1)c1ccc(-c2ccccc2)nc1NCCN1CCOCC1 [{2-[(2-morpholin-4-ylethyl)amino]-6-phenyl(3-pyridyl)}-N-(3-pyridylmethyl)carboxamide]
2530 nM | Cn1cc(-c2ccc(C(=O)NCc3cccnc3)c(NCCc3ccccn3)n2)cn1 [{6-(1-methylpyrazol-4-yl)-2-[(2-(2-pyridyl)ethyl)amino](3-pyridyl)}-N-(3-pyridylmethyl)carboxamide]
512 nM | N#Cc1ccccc1-c1ccc(C(=O)NC[C@H]2CCCN(C(=O)CCCN)C2)c(NCCc2cccc(F)c2)n1 [N-{[(3R)-1-(4-aminobutanoyl)(3-piperidyl)]methyl}(6-(2-cyanophenyl)-2-{[2-(3-fluorophenyl)ethyl]amino}(3-pyridyl))carboxamide]
155 nM | N#Cc1ccccc1-c1ccc(C(=O)NC[C@H]2CCCCN2C(=O)CCN)c(NCCc2cccc(F)c2)n1 [N-{[(2R)-1-(3-aminopropanoyl)(2-piperidyl)]methyl}(6-(2-cyanophenyl)-2-{[2-(3-fluorophenyl)ethyl]amino}(3-pyridyl))carboxamide]
11200 nM | N#Cc1ccccc1-c1ccc(C(=O)NC[C@H]2CN(C(=O)CCN)CCN2)c(NCCc2cccc(F)c2)n1 [N-{[(2S)-4-(3-aminopropanoyl)piperazin-2-yl]methyl}(6-(2-cyanophenyl)-2-{[2-(3-fluorophenyl)ethyl]amino}(3-pyridyl))carboxamide]
11600 nM | COC(=O)N1CCNC[C@@H]1CNC(=O)c1ccc(-c2ccccc2C#N)nc1NCCc1cccc(F)c1 [methyl (2R)-2-{[(6-(2-cyanophenyl)-2-{[2-(3-fluorophenyl)ethyl]amino}(3-pyridyl))carbonylamino]methyl}piperazinecarboxylate]
359 nM | N#Cc1cc(C(=O)NC[C@H]2CCCN2C(=O)CCCN)c(NCCc2cccc(F)c2)nc1-c1cn[nH]c1 [N-{[(2R)-1-(4-aminobutanoyl)pyrrolidin-2-yl]methyl}(5-cyano-2-{[2-(3-fluorophenyl)ethyl]amino}-6-pyrazol-4-yl(3-pyridyl))carboxamide]
989 nM | COC(=O)c1ccc(-c2ccc(C(=O)NCc3cccnc3)c(NCCc3ccccn3)n2)cc1 [methyl 4-{6-[(2-(2-pyridyl)ethyl)amino]-5-[N-(3-pyridylmethyl)carbamoyl]-2-pyridyl}benzoate]
1230 nM | Cc1cc(C(=O)NC[C@H]2CCC(=O)N2CCCN)c(NCCc2cccc(F)c2)nc1-c1ccccc1C#N [N-{[(2R)-1-(3-aminopropyl)-5-oxopyrrolidin-2-yl]methyl}(6-(2-cyanophenyl)-2-{[2-(3-fluorophenyl)ethyl]amino}-5-methyl(3-pyridyl))carboxamide]
12 nM | N#Cc1ccccc1-c1ccc(C(=O)NCc2cccc(CN)c2)c(NCCc2cccc(F)c2)n1 [N-{[3-(aminomethyl)phenyl]methyl}(6-(2-cyanophenyl)-2-{[2-(3-fluorophenyl)ethyl]amino}(3-pyridyl))carboxamide]
1970 nM | O=C(NCc1cccnc1)c1ccc(-c2cccc(Cl)c2)nc1NCCc1ccccn1 [{6-(3-chlorophenyl)-2-[(2-(2-pyridyl)ethyl)amino](3-pyridyl)}-N-(3-pyridylmethyl)carboxamide]
20200 nM | O=C(NCc1cccnc1)c1ccc(-c2ccccc2)nc1NCCOc1ccccc1 [{6-phenyl-2-[(2-phenyoxyethyl)amino](3-pyridyl)}-N-(3-pyridylmethyl)carboxamide]
